Experimental findings from PubChem BioAssay AID328 (DTP/NCI, 2004) are described below.

“And” between values parts separate entries of the source, which are not always exact repeats. Equal entries are not always repeated. Toxic doses and inconclusive results are not listed. Residues, ends and D or L forms follow the SMILES beside them.

In this assay the test system is BDF1 mice, P388 leukemia ip, median survival T/C. The assay is described as follows: NCI In Vivo Anticancer Drug Screen. Data for tumor model P388 Leukemia (intraperitoneal) in B6D2F1 (BDF1) mice. The settings on record: endpoint: median survival time, higher = longer survival. The method in brief: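 In tumour-bearing mice, survival after compound treatment is set against the vehicle group and given as a quotient.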

Setting [1] is: dose: 25.0 mg/kg/injection, schedule: Q01DX009 (ip), vehicle: saline.
Setting [2] is: dose: 50.0 mg/kg/injection, schedule: Q01DX009 (ip), vehicle: saline.
Where [3] appears, read: dose: 100.0 mg/kg/injection, schedule: Q01DX009 (ip), vehicle: Klucel (hydroxypropylcellulose) (HPC).
Setting [4] is: dose: 100.0 mg/kg/injection, schedule: Q04DX003 (ip), vehicle: Klucel (hydroxypropylcellulose) (HPC).
Setting [5] is: dose: 200.0 mg/kg/injection, schedule: Q04DX003 (ip), vehicle: Klucel (hydroxypropylcellulose) (HPC).
Setting [6] is: dose: 200.0 mg/kg/injection, schedule: Q01DX009 (ip), vehicle: Klucel (hydroxypropylcellulose) (HPC).
Where [7] appears, read: dose: 400.0 mg/kg/injection, schedule: Q01DX009 (ip), vehicle: Klucel (hydroxypropylcellulose) (HPC).
Setting [8] is: dose: 400.0 mg/kg/injection, schedule: Q04DX003 (ip), vehicle: Klucel (hydroxypropylcellulose) (HPC).
Where [9] appears, read: dose: 12.5 mg/kg/injection, schedule: Q01DX009 (ip), vehicle: saline.
[10] abbreviates: dose: 100.0 mg/kg/injection, schedule: Q04DX003 (ip), vehicle: saline with Tween-80.
[11] abbreviates: dose: 200.0 mg/kg/injection, schedule: Q01DX009 (ip), vehicle: saline with Tween-80.
[12] abbreviates: dose: 200.0 mg/kg/injection, schedule: Q04DX003 (ip), vehicle: saline with Tween-80.
Setting [13] is: dose: 400.0 mg/kg/injection, schedule: Q04DX003 (ip), vehicle: saline with Tween-80.

For the compound `CC(C)(C)N1CCOCC1`, the T/C reads like this: (dose: 12.5 mg/kg/injection, schedule: Q04DX003 (ip), vehicle: saline) 109 % of control; under setting [1], 95 % of control; (dose: 25.0 mg/kg/injection, schedule: Q04DX003 (ip), vehicle: saline) 95 % of control; under setting [2], 86 % of control; (dose: 50.0 mg/kg/injection, schedule: Q04DX003 (ip), vehicle: saline) 90 % of control; (dose: 75.0 mg/kg/injection, schedule: Q04DX003 (ip), vehicle: saline) 105 % of control. The T/C (dose: 115.0 mg/kg/injection, schedule: Q04DX003 (ip), vehicle: saline) is 120 % of control.
On to `C#CC[As+](c1ccccc1)(c1ccccc1)c1ccccc1`, for which the T/C (dose: 3.0 mg/kg/injection, schedule: Q01DX009 (ip), vehicle: Klucel (hydroxypropylcellulose) (HPC)) was 121 % of control; the T/C (dose: 5.3 mg/kg/injection, schedule: Q04DX003 (ip), vehicle: Klucel (hydroxypropylcellulose) (HPC)) is 117 % of control; the T/C (dose: 12.0 mg/kg/injection, schedule: Q04DX003 (ip), vehicle: Klucel (hydroxypropylcellulose) (HPC)) was 104 % of control and 113 % of control; the T/C (dose: 25.0 mg/kg/injection, schedule: Q04DX003 (ip), vehicle: Klucel (hydroxypropylcellulose) (HPC)) was 109 % of control.
Regarding `O=c1ccc(=O)c2c(=O)c3ccccc3c(=O)c1=2`, the T/C (dose: 25.0 mg/kg/injection, schedule: Q01DX009 (ip), vehicle: Klucel (hydroxypropylcellulose) (HPC)) was 104 % of control; the T/C (dose: 50.0 mg/kg/injection, schedule: Q01DX009 (ip), vehicle: Klucel (hydroxypropylcellulose) (HPC)) is 103 % of control; the T/C (dose: 50.0 mg/kg/injection, schedule: Q04DX003 (ip), vehicle: Klucel (hydroxypropylcellulose) (HPC)) was 95 % of control; the T/C under setting [3] was 99 % of control; the T/C under setting [4] is 104 % of control; the T/C under setting [5] is 88 % of control.
For `C=CC1CN2CCC1CC2C(O)c1ccnc2ccc(OC)cc12` (configuration not stated), the T/C under setting [2] was 120 % of control; the T/C (dose: 100.0 mg/kg/injection, schedule: Q01DX009 (ip), vehicle: saline) is 95 % of control; the T/C (dose: 200.0 mg/kg/injection, schedule: Q01DX009 (ip), vehicle: saline) was 100 % of control.
Regarding `C[N+](C)(CC(=O)Nc1ccc(Cl)cc1)CC(=O)c1ccc(Cl)c(Cl)c1`, the T/C runs as follows: (dose: 100.0 mg/kg/injection, schedule: Q01DX001 (ip), vehicle: saline sonified) 104 % of control; (dose: 200.0 mg/kg/injection, schedule: Q01DX001 (ip), vehicle: saline sonified) 95 % of control; (dose: 400.0 mg/kg/injection, schedule: Q01DX001 (ip), vehicle: saline sonified) 100 % of control.
Regarding `C/C(N=Nc1ccc([N+](=O)[O-])cc1)=N\Nc1ccccc1`, the T/C runs as follows: under setting [3], 94 % of control; under setting [4], 91 % of control; under setting [6], 100 % of control; under setting [5], 87 % of control; under setting [7], 100 % of control; under setting [8], 104 % of control.
Turning to `CCCCCC(CN(C)C)C(=O)/C=C\c1ccc(Cl)cc1Cl` (configuration not stated), the T/C was 122 % of control (dose: 8.0 mg/kg/injection, schedule: Q01DX009 (ip), vehicle: saline); 122 % of control (dose: 12.0 mg/kg/injection, schedule: Q01DX009 (ip), vehicle: saline); 122 % of control (dose: 18.0 mg/kg/injection, schedule: Q01DX009 (ip), vehicle: saline).
For the compound `CCN(CC)CC1CO1` (configuration not stated), the T/C under setting [9] was 100 % of control.
For `CC(=O)NC(Cc1ccccc1)C(=O)NC(CCCN=C(N)N)C(=O)O` (stereo not drawn) (Ac-Phe-Arg-OH; configuration not given here), the T/C is, setting by setting: (dose: 50.0 mg/kg/injection, schedule: Q01DX005 (ip), vehicle: saline) 108 % of control; (dose: 100.0 mg/kg/injection, schedule: Q01DX005 (ip), vehicle: saline) 115 % of control; (dose: 200.0 mg/kg/injection, schedule: Q01DX005 (ip), vehicle: saline) 105 % of control.
Turning to `CC1CN=C(c2ccc(NC(=O)c3ccc(C(=O)Nc4ccc(C5=NCC(C)N5)cc4)c(N)c3)cc2)N1` (configuration not stated), the T/C was 150 % of control (dose: 6.7 mg/kg/injection, schedule: Q04DX003 (ip), vehicle: saline with Tween-80); 163 % of control (dose: 10.0 mg/kg/injection, schedule: Q04DX003 (ip), vehicle: saline with Tween-80); 172 % of control and 177 % of control (dose: 15.0 mg/kg/injection, schedule: Q04DX003 (ip), vehicle: saline with Tween-80).
With `O=C(c1ccccc1)c1c2ccccc2c(-c2ccccc2)c2ccccc12`, the T/C is 100 % of control under setting [3]; 91 % of control under setting [4]; 100 % of control under setting [6]; 87 % of control under setting [5]; 111 % of control under setting [7]; 95 % of control under setting [8].
For `Cc1cc(Cl)nc(Cl)c1C(N)=O`, the T/C reads like this: (dose: 50.0 mg/kg/injection, schedule: Q01DX005 (ip), vehicle: saline with Tween-80) 100 % of control; (dose: 100.0 mg/kg/injection, schedule: Q01DX005 (ip), vehicle: saline with Tween-80) 100 % of control; (dose: 200.0 mg/kg/injection, schedule: Q01DX005 (ip), vehicle: saline with Tween-80) 100 % of control.
Consider `O=NN1CCCNC1=O`, for which the T/C (dose: 66.0 mg/kg/injection, schedule: Q04DX003 (ip), vehicle: saline with Tween-80) was 245 % of control and the T/C under setting [10] was 116 % of control.
`Cc1cc(N(CCCl)CCCl)ccc1C=Nc1ccccc1-c1ccccc1`: the T/C is 120 % of control under setting [3]; 112 % of control under setting [4]; 116 % of control under setting [5]; 120 % of control (dose: 266.0 mg/kg/injection, schedule: Q04DX003 (ip), vehicle: Klucel (hydroxypropylcellulose) (HPC)); 150 % of control and 158 % of control under setting [7]; 95 % of control under setting [8]. Further, the T/C by setting is: (dose: 600.0 mg/kg/injection, schedule: Q01DX009 (ip), vehicle: Klucel (hydroxypropylcellulose) (HPC)) 200 % of control; (dose: 600.0 mg/kg/injection, schedule: Q04DX003 (ip), vehicle: Klucel (hydroxypropylcellulose) (HPC)) 154 % of control.
For the compound `CC(=O)OCC1OC(n2cnc3c(=S)nc[nH]c32)C(OC(C)=O)C1OC(C)=O` (configuration not stated), the T/C by setting is: (dose: 100.0 mg/kg/injection, schedule: Q01DX009 (ip), vehicle: saline with Tween-80) 118 % of control; under setting [11], 109 % of control; (dose: 400.0 mg/kg/injection, schedule: Q01DX009 (ip), vehicle: saline with Tween-80) 90 % of control.
With `CCCCc1ccc(C(=O)O)nc1`, the T/C is, setting by setting: under setting [9], 100 % of control; under setting [1], 102 % of control; under setting [2], 102 % of control.
Consider `COC(C)(OC)C(N)=O`, for which the T/C was 100 % of control under setting [10], 100 % of control under setting [12] and 104 % of control under setting [13].
For `CC1(C)COC(c2ccc(C(C)(C)C)cc2C(O)(c2cc(C(C)(C)C)ccc2C2=NC(C)(C)CO2)c2cc(C(C)(C)C)ccc2C2=NC(C)(C)CO2)=N1`, the T/C under setting [10] was 92 % of control and 94 % of control; the T/C under setting [12] is 94 % of control; the T/C under setting [13] is 90 % of control and 94 % of control.
In the case of `CCOC(=O)c1c(C)[nH]c(C)c1-c1ccccc1`, the T/C by setting is: (dose: 100.0 mg/kg/injection, schedule: Q01DX001 (ip), vehicle: Klucel (hydroxypropylcellulose) (HPC)) 109 % of control; (dose: 200.0 mg/kg/injection, schedule: Q01DX001 (ip), vehicle: Klucel (hydroxypropylcellulose) (HPC)) 109 % of control; (dose: 400.0 mg/kg/injection, schedule: Q01DX001 (ip), vehicle: Klucel (hydroxypropylcellulose) (HPC)) 109 % of control.
As to `C=CC(=O)NCNC(=O)C=C`, the T/C is 118 % of control (dose: 132.0 mg/kg/injection, schedule: Q04DX003 (ip), vehicle: saline with Tween-80) and 222 % of control (dose: 300.0 mg/kg/injection, schedule: Q04DX003 (ip), vehicle: saline with Tween-80).
For `c1ccc(CN2C3Oc4ccccc4C2Oc2ccccc23)cc1`, the T/C is 94 % of control (dose: 50.0 mg/kg/injection, schedule: Q01DX009 (ip), vehicle: saline with Tween-80) and 87 % of control under setting [11].
